Test [1] has as its target T1, NK1 receptor (UC11 cells) (Homo sapiens, UniProt P25103).
T1 construct: endogenous in cells; host or cells: UC11 cells
Description: Antagonism of NK1 receptor mediated (SP-induced) phosphatidylinositol turnover in UC11 cells. Format: cell-based. How it is done: Tachykinin-mediated inositol phosphate accumulation was measured in UC11 or SKLKB82#3 cells in the presence and absence of NK1 or NK2 receptor antagonists, respectively. Tissues were incubated in Krebs-Henseleit buffer at 37° C. with 95% O2 -5% CO2 gassing. Tissues were then incubated with fresh buffer containing 100 μCi of myo-[2-^3 H(N)] inositol at 37° C. for 60 min with gentle gassing. After washing twice in 5 ml room temperature buffer containing 10 mM LiCl, tissues were incubated for 30 min at room temperature with a buffer change at 15 min. Buffer was removed and Krebs-Henseleit buffer (containing 40 μg/ml bacitracin, 4 μg/ml each of leupeptin and chymostatin, 0.1% bovine serum albumin and 10 mM each of thiorphan and LiCl) added. After 15 min, SP was added to UC11 cells or NKA to SKLKB82#3 cells at various concentrations to start the reaction. […] The third elution was collected and 1 ml counted in 7 ml scintillation fluid. A 50 μl aliquot of the organic (bottom) phase was removed, dried in a scintillation vial and counted in 7 ml scintillation fluid.
(§1) The ratio of DPM in the aqueous phase aliquot (total inositol phosphates) to the DPM in the 50 μl organic phase aliquot (total [^3 H]-inositol incorporated) was calculated for each sample. Data are expressed as a percent of agonist-induced accumulation of [^3 H]-inositol phosphates over basal levels. […] Dose-response graphs were constructed and the abilities of the test compounds to inhibit tachykinin-induced phosphatidyinositol turnover determined with the aid of a computer program. […] Data is expressed as percent stimulation of total inositol phosphate accumulation over basal levels and normalized to the maximum response produced by SP. […] Schild analysis is performed using dose response curves (such as those presented in FIGS. 1a and 1b) to obtain a value indicative of the Strength of a competitive antagonist and is expressed as the pA2, which is the negative logarithm of the molar concentration of antagonist which reduces the effect of a dose of agonist to one-half of that expected at the dose of agonist.

Test [2] has as its target T2, NK2 receptor (SKLKB82#3 cells) (Bos taurus, UniProt P05363).
T2 construct: expressed in transfected cells; host or cells: SKLKB82#3 cells (mouse B82 fibroblasts, own knowledge)
T2 sequence (P05363 1-384): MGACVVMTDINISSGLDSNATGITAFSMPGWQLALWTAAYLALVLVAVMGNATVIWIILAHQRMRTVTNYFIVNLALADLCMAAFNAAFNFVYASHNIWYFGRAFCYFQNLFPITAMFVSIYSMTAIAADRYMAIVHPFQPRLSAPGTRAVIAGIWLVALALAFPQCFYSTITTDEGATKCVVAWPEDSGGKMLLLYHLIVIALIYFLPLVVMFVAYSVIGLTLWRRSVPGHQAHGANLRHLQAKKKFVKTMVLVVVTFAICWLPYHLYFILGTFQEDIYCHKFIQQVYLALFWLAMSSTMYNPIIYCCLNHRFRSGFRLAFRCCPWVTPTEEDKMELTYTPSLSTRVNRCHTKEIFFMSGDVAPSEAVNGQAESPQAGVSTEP
The experiment in a line: Antagonism of NK2 receptor mediated (NKA-induced) phosphatidylinositol turnover in SKLKB82#3 cells. The class given is cell-based. The settings on record: for NK-2 RECEPTOR -SLOPE: Schild analysis, NKA, mean (95% confidence limits). As to the method:
Tachykinin-mediated inositol phosphate accumulation was measured in UC11 or SKLKB82#3 cells in the presence and absence of NK1 or NK2 receptor antagonists, respectively. Tissues were incubated in Krebs-Henseleit buffer at 37° C. with 95% O2 -5% CO2 gassing. Tissues were then incubated with fresh buffer containing 100 μCi of myo-[2-^3 H(N)] inositol at 37° C. for 60 min with gentle gassing. After washing twice in 5 ml room temperature buffer containing 10 mM LiCl, tissues were incubated for 30 min at room temperature with a buffer change at 15 min. Buffer was removed and Krebs-Henseleit buffer (containing 40 μg/ml bacitracin, 4 μg/ml each of leupeptin and chymostatin, 0.1% bovine serum albumin and 10 mM each of thiorphan and LiCl) added. After 15 min, SP was added to UC11 cells or NKA to SKLKB82#3 cells at various concentrations to start the reaction. After incubation for 60 min at room temperature the reaction was terminated by addition of 930 μl chloroform:methanol (1:2 by volume) to each tube, followed by 310 μl chloroform and 310 μl doubly distilled water. Samples were vortexed, centrifuged, and 0.9 ml of the aqueous (top) phase removed and added to 2 ml ddH2 O. The mixture was vortexed and loaded onto a 50% Bio-Rad AG 1-X8 (formate form, 100-200 mesh) exchange column (Bio-Rad Laboratories, Hercules, Calif.). The columns were washed, in order, with: 1) 10 ml doubly distilled water, 2) 5 ml of 5 mM disodium tetraborate/60 mM sodium formate, and 3) 5 ml of 1M ammonium formate/0.1M formic acid. The third elution was collected and 1 ml counted in 7 ml scintillation fluid. A 50 μl aliquot of the organic (bottom) phase was removed, dried in a scintillation vial and counted in 7 ml scintillation fluid.
as §1

For test [3], the system named is NK1 and NK2 receptors. Description: Antagonism of capsaicin aerosol-induced respiratory effects in conscious guinea pigs, intravenous. The class given is in vivo, guinea pig. The settings on record: for SRE NUMBER: coughs/gasps during 19 min capsaicin exposure, mean and SEM; for effect on capsaicin-induced respiratory effects (in words): i.v. How it is done:
(§2) In vivo experiments were performed using male Duncan Hartley guinea pigs (250-350 g). Changes in conscious breathing patterns were monitored in four animals simultaneously using modified whole body plethysmography consisting of four small plexiglass boxes each connected to a reference box via Validyne DP 45-16 differential pressure transducers. The 4 boxes were equipped with an air supply line (also used for aerosol delivery) and an exhaust air line. Supply and exhaust lines were of the same length and narrow bore and arose from a common supply chamber and vented to a common exhaust chamber. This system was used to ensure that fluctuations in supply air and atmospheric pressure would remain in phase and be eliminated from the net signal by the differential pressure transducers. The analog pressure signals were digitalized via a Data Translation DT2821 A to D board. Data were collected at a rate of 100 samples/second/animal. Each cycle of pressure change was analyzed using the following parameters: rising and falling slope determined between minimum and maximum pressures, the ratio of rising over falling slope, and the magnitude of the change between initial trough pressure and peak cycle pressure. Using these values (and observing the animals) the pressure cycles were characterized into normal breaths, forced exhalations (apparent by abdominal heaving), significant respiratory events (SREs; usually coughs, less often sneezes or gasps which were characterized by transient, extremely large pressure increases which were distinguishable from noise) and movement/noise with a PCAT 286 running a System V UNIX operating system. Dyspnea was defined as a significant, sustained increase in plethysmograph pressure which was associated with an observable shift to labored breathing in the animal.
(§3) During the course of a typical experiment in which airway responsiveness to various bronchoconstricting agents was examined, aerosols were delivered for 19 min (0.33 ml/min) using a DeVilbiss Ultraneb 99 ultrasonic nebulizer and animals monitored during this time. Prior to nebulization, 1 min of resting breathing was collected to establish a baseline pressure. […] The vehicle for nebulization of all bronchoconstrictive agents was phosphate buffered saline (pH 7.4) which elicited no respiratory effects itself. Putative tachykinin antagonists were administered either (i.v.) 20 min prior to onset of aerosol exposure or orally 1 hour prior to onset (to guinea pigs after an overnight fast).
(§4) Capsaicin aerosol is known to promote release of the tachykinins SP and NKA from sensory nerves in the airways of guinea pigs which may then act upon NK1 and NK2 receptors, respectively to elicit respiratory effects.

The subject of test [4] is NK1 and NK2 receptors. Description: Antagonism of capsaicin aerosol-induced respiratory effects in conscious guinea pigs, oral. Format: in vivo, guinea pig. The following applies: for SRE NUMBER: coughs/gasps during 19 min capsaicin exposure, mean and SEM; for effect on capsaicin aerosol effects (in words): oral. As to the method: as §2, §3, §4
For test [5], the target named is T3, NK1 receptors (Cavia porcellus, UniProt P30547).
T3 construct: measuring Evans Blue dye accumulation in guinea pig trachea; from tissue; host or cells: guinea pig trachea and primary bronchi, whole animal in vivo
T3 sequence (P30547 whole entry): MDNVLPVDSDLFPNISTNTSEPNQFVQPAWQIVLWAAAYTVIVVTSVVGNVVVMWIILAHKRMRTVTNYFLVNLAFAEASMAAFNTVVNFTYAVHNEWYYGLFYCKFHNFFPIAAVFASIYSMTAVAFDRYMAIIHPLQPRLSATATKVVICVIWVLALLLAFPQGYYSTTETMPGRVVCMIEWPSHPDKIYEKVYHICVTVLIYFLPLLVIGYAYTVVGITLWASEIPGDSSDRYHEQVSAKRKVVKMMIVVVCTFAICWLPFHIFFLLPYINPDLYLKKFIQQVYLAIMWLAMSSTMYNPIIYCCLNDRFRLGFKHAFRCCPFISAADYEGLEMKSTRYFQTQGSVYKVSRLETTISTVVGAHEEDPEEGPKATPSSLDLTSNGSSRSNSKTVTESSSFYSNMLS
The experiment in a line: Antagonism of SP-induced plasma protein extravasation in guinea pig trachea. Format: in vivo. The following applies: for relative potency as NK-1 receptor antagonists (in words): Example 3 versus its (+)-enantiomer Example 20A. As to the method: SP-induced protein leakage through postcapillary venules was assessed by measuring Evans Blue dye accumulation in guinea pig trachea. Animals were anesthetized with pentobarbital then injected with Evans Blue dye (20 mg/kg, i.v., prepared in 0.9% NaCl solution). One minute after dye administration, the antagonist was administered (i.v.) followed by SP (0.3 nmole/kg, i.v.) and, after 5 min, excess dye removed from the circulation by transcardiac perfusion with 50 ml 0.9% NaCl solution. The trachea and primary bronchi were removed, blotted dry and weighed. Dye quantitation was performed spectrophotometrically ([…]) after extracting tissues in formamide for 24 hr at 50° C. Values were subtracted from background (dye only, no agonist). ED50 (dose of compound which inhibits SP-induced plasma protein extravasation by 50%) was calculated from linear regression analysis.

The test system of test [6] is NK2 receptor. Description: Antagonism of NKA aerosol-induced respiratory effects in conscious guinea pigs. The settings on record: dose dependent. Format: in vivo, guinea pig. How it is done: as §2
During the course of a typical experiment in which airway responsiveness to various bronchoconstricting agents was examined, aerosols were delivered for 19 min (0.33 ml/min) using a DeVilbiss Ultraneb 99 ultrasonic nebulizer and animals monitored during this time. […]

Where a name gives a salt, the structure may show the parent alone.

T1 sequence (P25103 whole entry): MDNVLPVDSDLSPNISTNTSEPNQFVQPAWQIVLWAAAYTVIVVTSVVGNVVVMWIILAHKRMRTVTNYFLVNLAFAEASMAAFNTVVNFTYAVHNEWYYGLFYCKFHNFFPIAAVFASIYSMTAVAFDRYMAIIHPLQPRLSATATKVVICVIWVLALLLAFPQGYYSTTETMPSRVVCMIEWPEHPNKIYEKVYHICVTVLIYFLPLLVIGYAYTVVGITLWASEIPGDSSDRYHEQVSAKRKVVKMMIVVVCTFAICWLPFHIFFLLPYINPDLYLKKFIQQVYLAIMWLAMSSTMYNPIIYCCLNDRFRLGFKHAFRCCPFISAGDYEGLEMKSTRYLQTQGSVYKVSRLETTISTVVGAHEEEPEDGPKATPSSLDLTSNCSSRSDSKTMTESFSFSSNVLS

On to `COc1cc(C(=O)N2CCC(CCN3CCC(C(N)=O)(c4ccccc4)CC3)(c3ccc(Cl)c(Cl)c3)C2)cc(OC)c1OC` (racemic) [Example 3A, 1-[2-[3-(3,4-dichloro-phenyl)-1-(3,4,5-trimethoxy-benzoyl)-pyrrolidin-3-yl]-ethyl]-4-phenyl-piperidine-4-carboxylic acid amide hydrochloride], for which the “NK-1 RECEPTOR -SLOPE” value in test [1] (Schild analysis, SP, mean (95% confidence limits)) turned out to be 0.90. Besides, in test [2], the “NK-2 RECEPTOR -SLOPE” value is 0.73. In addition, the “SRE NUMBER” value in test [3] (10 mg/kg i.v.) was 8.50 ± 1.9; in test [4] (25 mg/kg oral) it was 4.6 ± 1.0; in test [4] (50 mg/kg oral) it was 2.8 ± 0.8; in test [4] (100 mg/kg oral) it was 2.1 ± 0.5. In test [3], the “effect on capsaicin-induced respiratory effects (in words)” value is reported as “attenuate capsaicin-induced respiratory effects”. Also, the “effect on capsaicin aerosol effects (in words)” value in test [4] was “antagonize the effects of capsaicin aerosol”.
Take `COc1cc(C(=O)N2CCC(CCN3CCC(C(N)=O)(c4ccccc4)CC3)(c3ccc(Cl)c(Cl)c3)C2)cc(OC)c1OC.Cl` (single isomer, unassigned; (+)) [Example 20A, (+)-1-[2-[3-(3,4-dichloro-phenyl)-1-(3,4,5-trimethoxy-benzoyl)-pyrrolidin-3-yl]-ethyl]-4-phenyl-piperidine-4-carboxylic acid amide hydrochloride]: the “relative potency as NK-1 receptor antagonists (in words)” value in test [5] was “equipotent”. Further, the “effect on NKA aerosol respiratory effects (in words)” value in test [6] is on record as “reduced the effects of NKA aerosol”. Moreover, the “SRE NUMBER” value in test [3] (1 mg/kg i.v.) is given as 9.9 ± 2.7; in test [3] (2.5 mg/kg i.v.) it was 8.3 ± 1.6; in test [3] (5 mg/kg i.v.), 4.4 ± 1.9; in test [3] (10 mg/kg i.v.), 3.3 ± 1.1. The “effect on capsaicin-induced respiratory effects (in words)” value in test [3] was “attenuate capsaicin-induced respiratory effects”.
On to `COc1cc(C(=O)N2CCC(CCN3CCC(C(N)=O)(c4ccccc4)CC3)(c3ccc(Cl)c(Cl)c3)C2)cc(OC)c1OC` (single isomer, unassigned; (+)) [Example 20], for which, in test [2], the “NK-2 RECEPTOR -SLOPE” value worked out at 1.00.
Consider `COc1cc(C(=O)N2CCC(CCN3CCC(C(N)=O)(c4ccccc4)CC3)(c3ccc(Cl)c(Cl)c3)C2)cc(OC)c1OC` (stereo not shown) [Example 3, 1-[2-[3-(3,4-dichloro-phenyl)-1-(3,4,5-trimethoxy-benzoyl)-pyrrolidin-3-yl]-ethyl]-4-phenyl-piperidine-4-carboxylic acid amide], for which the “antagonism of SP induced PI turnover (in words)” value in test [1] (FIG. 1a) is reported as “dose related antagonism”. Moreover, the “agonist activity, PI turnover (in words)” value in test [1] (compound alone) and in test [2] (compound alone) was “no agonist activity” in each case. In test [2] (FIG. 1b), the “antagonism of NKA induced PI turnover (in words)” value is “dose related antagonism”. Besides, the “relative potency as NK-1 receptor antagonists (in words)” value in test [5] is “equipotent”. In test [5] (FIG. 2), the “antagonism of SP-induced plasma protein extravasation (in words)” value was “dose related antagonism”. Further, in test [6], the “effect on NKA aerosol respiratory effects (in words)” value is “reduced the effects of NKA aerosol”.
For `COc1cccc(OC)c1C(=O)N1CCC(CCN2CCC(C(N)=O)(c3ccccc3)CC2)(c2ccc(Cl)c(Cl)c2)C1` (stereo not shown) [Example 5A, 1-[2-[3-(3,4-dichloro-phenyl)-1-(2,6-dimethoxy-benzoyl)-pyrrolidin-3-yl]-ethyl]-4-phenyl-piperidine-4-carboxylic acid amide hydrochloride], the “effect on NKA aerosol respiratory effects (in words)” value in test [6] is recorded as “reduced the effects of NKA aerosol”.
In the case of `COc1cccc(OC)c1C(=O)N1CCC(CCN2CCC(C(N)=O)(c3ccccc3)CC2)(c2ccc(Cl)c(Cl)c2)C1` (stereo not shown) [Example 5], in test [4], the “effect on capsaicin aerosol effects (in words)” value was “antagonize the effects of capsaicin aerosol”.

(Values after patent publication US5661160A, “Substituted pyrrolidin-3-yl-alkyl-piperidines” (Merrell Pharmaceuticals Inc., priority 1995, dated 1997).)
